# Experimental data published in ChEMBL document CHEMBL1201862, “PubChem BioAssay data set” (2004).
#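 Protocol summary: plate cells (96-well), add compound at 5 concentrations, incubate 48 h, interpolate endpoints linearly. GI50 = concentration required for 50% inhibition of growth.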 Calls of active or inactive are those of the source. Cut-off read from the data, not from the text of the source: active = GI50 up to about 1.1 µM and inactive = higher.
# Tests used:
# Test in all cases: inhibition of tumour cell growth, NCI panel, 48 h
# [1] = tested on: CAKI-1
# [2] = tested on: HOP-62
# [3] = tested on: COLO 205
# [4] = tested on: KM12
# [5] = tested on: EKVX
# [6] = tested on: OVCAR-5
# [7] = tested on: UACC-62
# [8] = tested on: A498
# [9] = tested on: SR
# [10] = tested on: UACC-257
# [11] = tested on: HCC 2998
# [12] = tested on: PC-3
# [13] = tested on: HL-60
# [14] = tested on: SK-MEL-2
# [15] = tested on: A549
# [16] = tested on: MCF7
# [17] = tested on: SNB-75
# [18] = tested on: TK-10
# [19] = tested on: CCRF-CEM
# [20] = tested on: OVCAR-4
Compound,GI50 [1],GI50 [2],GI50 [3],GI50 [4],GI50 [5],GI50 [6],GI50 [7],GI50 [8],GI50 [9],GI50 [10],GI50 [11],GI50 [12],GI50 [13],GI50 [14],GI50 [15],GI50 [16],GI50 [17],GI50 [18],GI50 [19],GI50 [20]
Cc1nc2sccn2c1/C=C1/C(=O)Nc2cccc(Cl)c21,> 100 µM (inactive),> 100 µM (inactive),71.4 µM (inactive),38.3 µM (inactive),79.6 µM (inactive),73.5 µM (inactive),> 100 µM (inactive),87.3 µM (inactive),61.9 µM (inactive),> 100 µM (inactive),> 100 µM (inactive),80.7 µM (inactive),52.7 µM (inactive),> 100 µM (inactive),> 100 µM (inactive),23 µM (inactive),> 100 µM (inactive),> 100 µM (inactive),> 100 µM (inactive),
COc1c(C)c(C/C=C(\C)CCCCO[Si](c2ccccc2)(c2ccccc2)C(C)(C)C)c(OC)c(OC)c1OC,1.84 µM (inactive),25.1 µM (inactive),20.6 µM (inactive),14.8 µM (inactive),> 31.6 µM (inactive),> 46.5 µM (inactive),> 46.5 µM (inactive),> 100 µM (inactive),43.2 µM (inactive),> 46.5 µM (inactive),41.8 µM (inactive),> 85.7 µM (inactive),47.3 µM (inactive),> 100 µM (inactive),21.4 µM (inactive),> 46.5 µM (inactive),> 46.3 µM (inactive),> 31.6 µM (inactive),> 46.5 µM (inactive),28.1 µM (inactive)
CC1(C)CCC(C)(C)c2cc(NC(=O)c3ccc(C(=O)O)cc3)ccc21 [TAMIBAROTENE],47.6 µM (inactive),23.6 µM (inactive),23.9 µM (inactive),20.7 µM (inactive),37.9 µM (inactive),> 51.6 µM (inactive),16.5 µM (inactive),23.7 µM (inactive),> 69.8 µM (inactive),29.4 µM (inactive),27.2 µM (inactive),25.8 µM (inactive),44.5 µM (inactive),25.6 µM (inactive),27 µM (inactive),28.9 µM (inactive),> 100 µM (inactive),25.1 µM (inactive),16.8 µM (inactive),31.1 µM (inactive)
CN1c2ccccc2C2c3c(O)ccc(O)c3C=C([N+](=O)[O-])C21 (stereo not drawn),2.13 µM (inactive),2.11 µM (inactive),0.653 µM (active),0.39 µM (active),1.67 µM (inactive),1.83 µM (inactive),0.957 µM (active),1.79 µM (inactive),0.569 µM (active),0.19 µM (active),0.716 µM (active),0.388 µM (active),0.684 µM (active),1.98 µM (inactive),1.56 µM (inactive),0.155 µM (active),4.7 µM (inactive),11.2 µM (inactive),1.04 µM (active),1.21 µM (inactive)
Cn1c(=O)c2c(nc3n(CCCCl)c(=O)ccn23)n(C)c1=O,> 100 µM (inactive),> 100 µM (inactive),> 100 µM (inactive),> 100 µM (inactive),> 100 µM (inactive),> 100 µM (inactive),> 100 µM (inactive),> 100 µM (inactive),> 100 µM (inactive),> 100 µM (inactive),> 100 µM (inactive),> 100 µM (inactive),> 100 µM (inactive),> 100 µM (inactive),> 100 µM (inactive),> 100 µM (inactive),> 100 µM (inactive),> 100 µM (inactive),> 100 µM (inactive),> 100 µM (inactive)
CCCCCCCCCc1cccc(N2C(N)=NC(N)=NC2(C)C)c1,0.293 µM (active),< 0.0237 µM (active),0.0209 µM (active),0.0139 µM (active),< 0.0329 µM (active),,< 0.01 µM (active),1.24 µM (inactive),< 0.01 µM (active),0.0611 µM (active),< 0.01 µM (active),< 0.0184 µM (active),< 0.01 µM (active),0.993 µM (active),< 0.01 µM (active),< 0.0204 µM (active),0.735 µM (active),0.0304 µM (active),0.197 µM (active),< 0.01 µM (active)
CC(C)Cn1cnc2c(Sc3c([N+](=O)[O-])ncn3C)nc(N)nc21,22.8 µM (inactive),> 80.4 µM (inactive),> 25.6 µM (inactive),> 100 µM (inactive),> 50.8 µM (inactive),> 100 µM (inactive),> 50.2 µM (inactive),> 100 µM (inactive),38.7 µM (inactive),> 49.3 µM (inactive),> 62.7 µM (inactive),26.1 µM (inactive),30.3 µM (inactive),22 µM (inactive),> 67.9 µM (inactive),27.6 µM (inactive),> 59.8 µM (inactive),> 41.1 µM (inactive),38.6 µM (inactive),23.6 µM (inactive)
